Test system: diaphorase
Assay: fluorescently labeled diaphorase binding to peptide array with or without excess FAD
Settings: for 1 microM FAD (array fluorescence of bound diaphorase) / 1 micro no FAD (array fluorescence of bound diaphorase): 1 micromolar labeled diaphorase; for 1 microM FAD (array fluorescence of bound diaphorase) / 10 microM FAD (array fluorescence of bound diaphorase): excess FAD present; for 1 microM FAD (array fluorescence of bound diaphorase) / 1 micro no FAD (array fluorescence of bound diaphorase) / 10 microM FAD (array fluorescence of bound diaphorase) / 10 microM no FAD (array fluorescence of bound diaphorase): 65535 is detector saturation; for 10 microM FAD (array fluorescence of bound diaphorase) / 10 microM no FAD (array fluorescence of bound diaphorase): 10 micromolar labeled diaphorase; for 1 microM noFAD/FAD / 10 microM noFAD/FAD: ratio of binding without FAD to binding with FAD; for 1 microM noFAD/FAD / Meas. ratio: 1 micromolar diaphorase; for 10 microM noFAD/FAD: 10 micromolar diaphorase; for Meas. ratio: ratio without/with FAD calculated from measured binding values
Procedure: Measurements were performed in which diaphorase was bound to an array of about 126,000 unique sequences. The sequences were chosen simply to cover sequence space. 16 of the natural 20 amino acids were used to make up these sequences with C, I, M and T omitted. The diaphorase was fluorescently labeled and each peptide sequence feature was scanned and fluorescence recorded on the array. Diaphorase bound tightly to some peptides and not at all to others. Two different concentrations of diaphorase were used, 1 and 10 micromolar, and the diaphorase was either bound in the presence of excess FAD or not. […] Indeed the Pearson correlation coefficient between w/ and w/o FAD was >0.97, which actually speaks to the reproducibility of this dataset. However, there are some differences as shown on the scatter plot of FIG. 1. When one takes a ratio of the binding without FAD and the binding with FAD, one finds the following top 30 ratios (Table 1): Note that all these sequences end with a GSG linker sequence. Because there are two concentrations, one can easily check for consistency. Note that 65535 is detector saturation, so one has to ignore those values. For this reason, the lower concentration is used most of the time. […] It appears that this was some kind of error and was ignored in subsequent analysis. A similar conclusion can be made with the 7th highest value. Looking at the sequences, RW or at least R or K followed by a nonpolar or aromatic amino acid at the N-terminus. This is interesting as FAD is negatively charged, though the adenine in FAD looks a bit like tryptophan (see FIG. 2).

| Sequence | 1 microM FAD (array fluorescence of bound diaphorase) | 1 micro no FAD (array fluorescence of bound diaphorase) | 10 microM FAD (array fluorescence of bound diaphorase) | 10 microM no FAD (array fluorescence of bound diaphorase) | 1 microM noFAD/FAD | 10 microM noFAD/FAD | Meas. ratio |
| --- | --- | --- | --- | --- | --- | --- | --- |
| RWRYYWKSEGSG [array peptide with C-terminal GSG linker] | 4093.5 | 11043 | 51412.25 | 65535 | 2.698 | 1.275 | 2.70 |
| VVQALFDGSG [array peptide with C-terminal GSG linker] | 2304.25 | 1467.5 | 21180.25 | 9478.25 | 0.6369 | 0.4475 | 0.64 |
| RFKYPLDGGSG [array peptide with C-terminal GSG linker] | 2199.25 | 5764.75 | 30389 | 55899.25 | 2.621 | 1.839 | 2.62 |
| HVYGLNLFDGSG [array peptide with C-terminal GSG linker] |  |  |  |  |  |  | 0.72 |
| LDRLGEYQFSGSG [array peptide with C-terminal GSG linker] | 1164.75 | 709.25 | 7142.5 | 2995.75 | 0.6089 | 0.4194 | 0.61 |
| RLQYLFKSDGSG [array peptide with C-terminal GSG linker] | 1964.75 | 5778.25 | 30591 | 64328.25 | 2.941 | 2.103 | 2.94 |
| AQVAVDGFYVDGSG [array peptide with C-terminal GSG linker] | 3089 | 2012.5 | 22739.5 | 12627 | 0.6515 | 0.5553 | 0.65 |
| WHLLGWVGYGGSG [array peptide with C-terminal GSG linker] |  |  |  |  |  |  | 0.70 |
| ARWQQYKFGGSG [array peptide with C-terminal GSG linker] |  |  |  |  |  |  | 2.18 |
| RWQYYNQKFGSG [array peptide with C-terminal GSG linker] | 5458 | 15697.5 | 65535 | 65535 | 2.876 | 1 | 2.88 |
| YVWGLELSGGSG [array peptide with C-terminal GSG linker] | 4688.5 | 2607.5 | 36320 | 17286.5 | 0.5561 | 0.4759 | 0.56 |
| RYPWNKLYKFDGSG [array peptide with C-terminal GSG linker] | 3483.25 | 9735.75 | 53014.5 | 65535 | 2.795 | 1.236 | 2.80 |
| LKQLFLEGGSG [array peptide with C-terminal GSG linker] | 2474.5 | 1559.25 | 23548.25 | 8696.5 | 0.6301 | 0.3693 | 0.63 |
| LFDNVLEFVEDGS |  |  |  |  |  |  | 0.69 |
| FGKLYQLYNDGSG [array peptide with C-terminal GSG linker] | 3049 | 1911.25 | 34155 | 15703 | 0.6268 | 0.4598 | 0.63 |
| PVDFGYQLKVSGS |  |  |  |  |  |  | 0.66 |

| Sequence | 1 microM FAD (array fluorescence of bound diaphorase) | 1 micro no FAD (array fluorescence of bound diaphorase) | 10 microM FAD (array fluorescence of bound diaphorase) | 10 microM no FAD (array fluorescence of bound diaphorase) | 1 microM noFAD/FAD | 10 microM noFAD/FAD | Meas. ratio |
| --- | --- | --- | --- | --- | --- | --- | --- |
| PRFNWKPYGGSG [array peptide with C-terminal GSG linker] |  |  |  |  |  |  | 2.44 |
| FQFGKVVSDGSG [array peptide with C-terminal GSG linker] | 2470 | 1574.5 | 20187.75 | 12735.5 | 0.6374 | 0.6309 | 0.64 |
| YRPYGPVYNGGSG [array peptide with C-terminal GSG linker] | 6762.5 | 18709.5 | 65535 | 65535 | 2.767 | 1 | 2.77 |
| WLDLGVFPYQHLGSG [array peptide with C-terminal GSG linker] | 3433.25 | 2202 | 33610.5 | 25700.5 | 0.6414 | 0.7647 | 0.64 |
| WRVQAWRPNKVEG |  |  |  |  |  |  | 2.43 |
| WRGFKFADGGSG [array peptide with C-terminal GSG linker] | 2156.5 | 5654.5 | 31464.5 | 58885 | 2.622 | 1.871 | 2.62 |
| ALDKLSGLWKHVG |  |  |  |  |  |  | 0.69 |
| RFGQNLPLGGSG [array peptide with C-terminal GSG linker] | 2103.25 | 5802.25 | 34712 | 63502.5 | 2.759 | 1.829 | 2.76 |
| RSHPKHNVGSG [array peptide with C-terminal GSG linker] | 3876 | 1953.667 | 12238.917 | 17018.417 | 0.504 | 1.391 | 0.50 |
| RNWYGGSG [array peptide with C-terminal GSG linker] | 2940.75 | 7830.5 | 48587 | 65535 | 2.663 | 1.349 | 2.66 |
| VERASYNLDGSG [array peptide with C-terminal GSG linker] | 2238 | 759 | 3374 | 2900.5 | 0.3391 | 0.8597 | 0.34 |
| NHLLEGAFVSEGS |  |  |  |  |  |  | 0.77 |
| KPLAVQKVGSG (KPLAVQKVFGSG) [array peptide with C-terminal GSG linker] | 3707.5 | 34797.5 | 36814 | 46161 | 9.386 | 1.254 | 9.39 |
| WRLNPLQFGGSG [array peptide with C-terminal GSG linker] |  |  |  |  |  |  | 2.54 |
| GYHLFEKLYFDGS |  |  |  |  |  |  | 0.70 |
| EGYANKLLALFSGSG [array peptide with C-terminal GSG linker] | 1727 | 1034 | 10408.25 | 6648 | 0.5987 | 0.6387 | 0.60 |
